Test results reported in PubChem BioAssay (NCI).
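Tested at 5 concentrations; 48 h exposure; 96-well plates; endpoints linearly interpolated, else capped at highest concentration. GI50 = concentration required for 50% inhibition of growth. Definition used: TGI = concentration required for complete inhibition of growth.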

Tests used:
Assay in all cases: inhibition of tumour cell growth, NCI panel, 48 h
A498 renal = system: A498 renal
786-0 renal = system: 786-0 renal
SF-539 CNS = system: SF-539 CNS
HL-60(TB) leukemia = system: HL-60(TB) leukemia
MDA-MB-231 breast = system: MDA-MB-231 breast
SF-295 CNS = system: SF-295 CNS
HOP-62 NSCLC = system: HOP-62 NSCLC
MDA-MB-435 = system: MDA-MB-435
NCI-H23 lung = system: NCI-H23 lung
NCI-H522 lung = system: NCI-H522 lung

Structure (SMILES)	GI50 (A498 renal) [µM]	TGI (A498 renal) [µM]	GI50 (786-0 renal) [µM]	TGI (786-0 renal) [µM]	GI50 (SF-539 CNS) [µM]	TGI (SF-539 CNS) [µM]	GI50 (HL-60(TB) leukemia) [µM]	TGI (HL-60(TB) leukemia) [µM]	GI50 (MDA-MB-231 breast) [µM]	TGI (MDA-MB-231 breast) [µM]	GI50 (SF-295 CNS) [µM]	TGI (SF-295 CNS) [µM]	GI50 (HOP-62 NSCLC) [µM]	TGI (HOP-62 NSCLC) [µM]	GI50 (MDA-MB-435) [µM]	TGI (MDA-MB-435) [µM]	GI50 (NCI-H23 lung) [µM]	TGI (NCI-H23 lung) [µM]	GI50 (NCI-H522 lung) [µM]	TGI (NCI-H522 lung) [µM]
CCN(CC)CCNc1ccc(C)c2sc3cc(Cl)ccc3c(=O)c12	1.89	4.79	1.66	3.1	1.6	3	1.81	3.71	1.41	2.93	1.67	3.16	1.44	2.9	1.7	3.14	1.7	3.47	2.04	3.77
COC(=O)[C@@H](C)C[C@H](Cc1cn(C)c2ccccc12)NC(=O)c1csc([C@@H](C[C@H](C(C)C)N(C)C(=O)[C@@H](NC(=O)[C@H]2CCCCN2C)C(C)C)OC(C)=O)n1	0.0456	1.12	0.0545	> 13	0.0173	0.116	0.00469	0.0194	0.0239	0.966	0.024	> 16.7	0.0133	> 16.7	0.00215	0.00856	0.0718	> 16.7	0.00303	0.0108
Nc1cc(F)ccc1CC(=O)O		> 100		> 100		> 100		> 100		> 100		> 100		> 100		> 100		> 100		> 100
O=C(c1ccco1)c1nc2cc(C(F)(F)F)ccc2nc1C(F)(F)F	> 100	> 100	> 100	> 100	> 100	> 100	22.2	69.2	99.1	> 100	> 100	> 100	71	> 100	> 100	> 100	> 100	> 100	> 100	> 100
COC(=O)/C(=N\NC(N)=O)C(C(=O)C(=O)Nc1ccccc1OC)c1nc2ccc([N+](=O)[O-])cc2[nH]c1=O (configuration not stated)		> 100		> 100		> 100		> 100		> 100		> 100		> 100		> 100		> 100		> 100
COc1ccc(N=Cc2c(O)ccc3c2oc2cc(Cl)c(O)c(Cl)c23)cc1	14.5	28.5	19.2	52	7.03	30.4	13.2	42.7	14.7	48.4	3.39	17.8	14.3	33.5	11.6	43.2	12.2	42.5	9.61	28.2
CC12OOC(c3ccccc31)c1c2ccc2ccccc12 (configuration not stated)		32.1		22.3		22.3		2.72		26.6		14.3		30.2		18.2		26.6		1.99
N#Cc1c(NC(=O)NCc2ccccc2)sc2c1CCCC2	0.236	1.13	0.822	> 100	0.37	4.68	0.3	3.13	1.73	> 42.4	0.549	37.7	1.51	> 74.8	0.215	0.595	1.18	> 26.3	0.559	> 100
CCOC(=O)c1ccc(Nc2sc(C(=O)c3ccc(Br)cc3)c(N)c2C#N)cc1	0.321	6.02	1.99	> 100	1.07	> 100	0.421	> 25.2	2.92	> 100	0.478	> 100	1.56	> 100	0.257	1.01	14.3	> 100	0.53	> 100
O=C(/C=C/c1ccco1)c1cc(F)c(Cl)cc1Cl	18.7	39.2	22.3	55.4	20	38.1	30.8	> 100	21.9	58	24.3	65.9	19.2	39.1	32.2	> 100	31	> 100	18.4	39.5
CCCCCCCC/C=C/CCCCCCCC1=NC(C)(C)CN1CC(C)O (configuration not stated)	0.935	17	1.71	3.16	1.7	3.09	1.88	4.44	1.66	3.43	1.82	3.5	1.83	3.39	1.77	3.45	3.11	7.99	1.92	4.33
CN(C)c1ccc(/C=C/c2ccnc3c(O)cccc23)cc1	3.39	> 100	0.886	> 26.2	0.344	3.33	0.292	1.75	0.434	> 100	1.06	> 100	0.469	> 58.9	0.455	> 100	0.511	> 100	0.257	1.72
CN1CCC(COc2cnc(-c3cccc(Cn4nc(-c5cccc(C#N)c5)ccc4=O)c3)nc2)CC1	7.2	20.6	1.97	3.86	1.7	3.3	2	4.02	2	4.43	0.771	16.5	4.24	14.2	2.74	9.47	4.93	21.6	2.27	5.06
O=C1CC[C@H](N2C(=O)c3cccc4c(Cc5ccc(CN6CCOCC6)cc5)ccc2c34)C(=O)N1	> 100	> 100	> 100	> 100	> 100	> 100	24.1	> 100	79.5	> 100	19.3	> 100	52.3	> 100	36.9	> 100	29.4	> 100	12.3	> 100
O=C1C(Cl)=C(Sc2nnc3c4ccccc4c4ccccc4c3n2)C(=O)c2ccccc21		37.2		33.9		32.4		7.59		17		23.3		32		3.41		19.4		57.7
Nc1nc2c(ncn2C2CCC(CO)O2)c(=O)n1C(=O)c1ccccc1 (configuration not stated)		> 100		> 100		> 100		> 100		> 100		> 100		> 100		> 100		> 100		> 100
C[n+]1c(/C=C/c2c[nH]c3ccccc23)ccc2ccccc21	2.8	18.1	14.2	30.3	12.7	27.3	12.8	30.1	10.5	23	6.93	20.5	12.8	31.8	7.95	20.6			11.8	25.9
C=C(C)[C@@H]1CC[C@]2(COCCC#N)CC[C@]3(C)[C@H](CC[C@@H]4[C@@](C)(CCCNCCC#N)[C@H](C(=C)C)CC[C@]43C)[C@@H]12	> 50	> 50	10.6	30.1	9.78	20.4	8.47	20.5	7.83	17.7	> 50	> 50	49.7	> 50	12.7	34.5	16.5	> 50	8.55	23.4
COc1cc2nccc(Oc3ccc(NC(=O)NC4CC4)c(Cl)c3)c2cc1C(N)=O	4.63	51.1	13.4	37.7	0.536	40	> 100	> 100	11.5	43.8	23.4	> 85.7	21.4	61.5	> 100	> 100	15.6	> 74.6	5.74	28.2
Cc1c(O)c2ccccc2oc1=O		> 100		> 100		> 100		> 100		> 100		> 100		> 100		> 100		> 100		> 100
Cc1cc(Cl)cc2c(N=Nc3ccc(S(N)(=O)=O)cc3)c(O)[nH]c12	> 25	> 25	> 25	> 25	> 25	> 25	> 25	> 25	> 25	> 25	> 25	> 25	> 25	> 25	> 25	> 25	> 25	> 25	> 25	> 25
Cn1cc(C2=C(c3ccccc3[N+](=O)[O-])C(=O)NC2=O)c2ccccc21	0.384	2.57	3.2	> 25	2.61	10.1	2.11	13.9	4.72	19.6	1.44	> 25	5.35	> 23.3	4.82	> 25	7.25	> 25	5.78	18.1
COC1=CC(c2ccc[nH]2)=N/C1=C\c1[nH]c(C)c(CC(=O)OCc2ccccc2)c1CCC(=O)OCc1ccccc1	0.288	2.42	0.376	1.53	0.458	1.74	0.49	2.66	0.224	1.67	0.305	1.3	0.365	2.39	0.412	1.64	0.546	4.45	0.302	1.85
Cc1ccc(NC(=O)c2ccc(CN3CCN(C)CC3)cc2)cc1Nc1nccc(-c2cccnc2)n1	20.6	39.2	16.1	33.6	8.06	22.4	16	35.9	18.3	46.2	17.8	38.3	21.9	47	17.4	36	15	38.2	16.1	32.7
COc1cc(/C=C2\C[C@H]3[C@@H]4CC=C5C[C@@H](O)CC[C@]5(C)[C@H]4CC[C@]3(C)[C@H]2O)ccc1OCCN1CCCC1	25.1	> 50	6.16	16	8.28	17.6	9.96	19	11.7	23	13.6	37	9.67	20.8	10.7	28.2	11.5	26	18	> 50
CCOC(=O)c1ccccc1OC(=O)NNc1ccccc1	> 68	> 100	1.18	> 100	0.312	1.33	0.365		10.5	> 100	0.333	> 37.4	> 84.2	> 100	0.531	> 100	30.3	> 100	1.67	> 100
